Measurements published in US20240059753A1, “COMPOSITIONS INCLUDING MULTI-AGONIST PEPTIDES AND METHODS OF MANUFACTURE AND USE” (Pep2Tango Therapeutics Inc., priority 2022, published 2024).
Structures can show the parent of a compound that is named as a salt. Numbered stars: 1 amine (or outer) side, 2 acyl side, 3 side chain; on linkers, the order of the positions; unused ones are H or OH. Bridge positions count the residues as written; N and C are the ends. Square brackets hold non-standard residues; d marks the D form. Side chains are listed from the residue outwards. * marks the point of attachment. C20 diacid = O=C(O)CCCCCCCCCCCCCCCCCCC(=O)*; C18 diacid = O=C(O)CCCCCCCCCCCCCCCCC(=O)*; γGlu = O=C(O)[C@H](CCC(=O)[*:2])N[*:1]; AEEA = NCCOCCOCC(=O)O; Aib = CC(C)(N)C(=O)O

T1: Human CalcitoninR (Homo sapiens, UniProt P30988)
T1 construct: expressed in transfected cells; host or cells: CHO-K1, stably transfected
T1 sequence (P30988 25-474): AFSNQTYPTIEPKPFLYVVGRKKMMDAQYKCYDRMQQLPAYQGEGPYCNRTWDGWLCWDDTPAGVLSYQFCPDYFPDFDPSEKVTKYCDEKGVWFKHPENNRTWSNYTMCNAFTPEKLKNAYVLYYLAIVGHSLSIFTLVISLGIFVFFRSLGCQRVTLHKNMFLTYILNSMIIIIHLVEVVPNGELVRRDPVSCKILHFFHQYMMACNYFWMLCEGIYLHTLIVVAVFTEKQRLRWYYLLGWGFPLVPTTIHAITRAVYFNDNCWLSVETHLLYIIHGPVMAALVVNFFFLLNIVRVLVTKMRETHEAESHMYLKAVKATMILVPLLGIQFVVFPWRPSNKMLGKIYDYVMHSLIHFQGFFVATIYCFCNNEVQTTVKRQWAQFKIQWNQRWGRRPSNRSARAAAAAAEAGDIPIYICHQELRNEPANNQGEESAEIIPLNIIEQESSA

T2: Human GIPR (Homo sapiens, UniProt P48546)
T2 construct: expressed in transfected cells; host or cells: CHO-K1, stably transfected
T2 sequence (P48546 22-466): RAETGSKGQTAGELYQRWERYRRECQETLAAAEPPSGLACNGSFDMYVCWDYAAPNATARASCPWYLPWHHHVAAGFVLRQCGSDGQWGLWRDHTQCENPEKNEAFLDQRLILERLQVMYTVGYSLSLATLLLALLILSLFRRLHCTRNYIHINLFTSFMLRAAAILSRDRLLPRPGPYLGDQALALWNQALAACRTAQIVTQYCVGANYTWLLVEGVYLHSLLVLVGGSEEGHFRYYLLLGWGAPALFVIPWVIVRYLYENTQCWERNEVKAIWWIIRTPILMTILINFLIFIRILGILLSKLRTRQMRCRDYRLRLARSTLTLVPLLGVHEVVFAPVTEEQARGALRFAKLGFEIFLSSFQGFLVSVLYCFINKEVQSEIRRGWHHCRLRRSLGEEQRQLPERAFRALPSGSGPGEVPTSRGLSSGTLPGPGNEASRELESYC

T3: Human Calc/RAMP3R (AMY3) (Homo sapiens, UniProt O60896+P30988)
T3 construct: expressed in transfected cells; host or cells: CHO-K1, stably transfected
T3 sequence (P30988 25-474): T1 sequence (P30988 25-474)
T3 sequence (O60896 24-148 partner): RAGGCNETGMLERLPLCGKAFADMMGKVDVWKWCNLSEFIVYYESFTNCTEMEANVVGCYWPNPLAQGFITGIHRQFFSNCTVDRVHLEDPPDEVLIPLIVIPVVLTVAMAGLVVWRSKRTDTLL

B1: Y-Aib-E-G-T-F-T-S-D-Y-S-I-Aib-LDKIAQQAFVQWLIAGGPSSGAPPPSCNTATCVLGRLSQELHRLQTYPRTNTGK*-N-T-Y-NH2-acetate salt (wherein K* = … (peptide)
chain: Y[Aib]EGTFTSDYSI[Aib]LDKIAQQAFVQWLIAGGPSSGAPPPSCNTATCVLGRLSQELHRLQTYPRTNTGK([γGlu-γGlu-C20 diacid])NTY-NH2
modifications: also: acetate salt

What was measured:
Conditions in all cases: stably transfected CHO-Kl cells, 0.1% casein
Human CalcitoninR = target: T1, Human CalcitoninR; experiment: GPCR cell-based cAMP assay, human calcitonin receptor
Protocol: (§1) Experimental protocol: Cells were seeded in a total volume of 20 μL into white walled, 384-well microplates and incubated at 37° C. overnight prior to testing. Prior to testing cell plating media was exchanged with 10 μL of Assay buffer (HBSS+10 mM HEPES). All compounds were run in assay buffer containing 0.1% casein. Briefly, intermediate dilution of sample stocks was performed to generate 4× sample in assay buffer. 5 μL of 4× sample was added to cells and incubated at 37° C. for 30 minutes. Final assay vehicle concentration was 1%. […] Microplates were read following signal generation with PerkinElmer Envision instrument for chemiluminescent signal detection.
(§2) The results are expressed as a percent efficacy relative to the maximum response of the control ligand.

Human GIPR = target: T2, Human GIPR; experiment: GPCR cell-based cAMP assay, human GIP receptor
Protocol: as §1, §2

Human GLP-1R = Human GLP-1R (Homo sapiens, UniProt P43220); experiment: GPCR cell-based cAMP assay, human GLP-1 receptor; design: expressed in transfected cells; host or cells: CHO-K1, stably transfected
Protocol: as §1, §2

Human Calc/RAMP3R (AMY3) = target: T3, Human Calc/RAMP3R (AMY3); experiment: GPCR cell-based cAMP assay, human AMY3 receptor
Protocol: as §1, §2

Chain of Human GLP-1R (P43220 24-463): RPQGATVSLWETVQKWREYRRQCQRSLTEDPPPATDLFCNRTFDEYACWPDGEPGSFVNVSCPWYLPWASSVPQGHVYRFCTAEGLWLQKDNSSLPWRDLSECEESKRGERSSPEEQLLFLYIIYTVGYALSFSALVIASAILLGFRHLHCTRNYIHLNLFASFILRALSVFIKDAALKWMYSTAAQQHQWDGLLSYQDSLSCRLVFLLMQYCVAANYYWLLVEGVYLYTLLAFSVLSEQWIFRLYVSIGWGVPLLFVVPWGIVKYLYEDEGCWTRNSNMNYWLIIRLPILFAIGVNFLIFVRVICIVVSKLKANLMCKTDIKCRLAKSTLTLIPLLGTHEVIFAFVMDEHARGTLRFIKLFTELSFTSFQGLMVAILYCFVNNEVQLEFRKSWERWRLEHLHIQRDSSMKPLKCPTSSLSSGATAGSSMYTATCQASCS

Molecule	EC50 (Human CalcitoninR)	EC50 (Human GIPR)	EC50 (Human GLP-1R)	EC50 (Human Calc/RAMP3R (AMY3))
CC[C@H](C)[C@H](NC(=O)[C@H](CC(C)C)NC(=O)[C@H](Cc1c[nH]c2ccccc12)NC(=O)[C@H](CCC(N)=O)NC(=O)[C@@H](NC(=O)[C@H](Cc1ccccc1)NC(=O)[C@H](C)NC(=O)[C@H](CCC(N)=O)NC(=O)[C@H](CCC(N)=O)NC(=O)[C@H](C)NC(=O)[C@@H](NC(=O)[C@H](CCCCN)NC(=O)[C@H](CC(=O)O)NC(=O)[C@H](CC(C)C)NC(=O)C(C)(C)NC(=O)[C@@H](NC(=O)[C@H](CO)NC(=O)[C@H](Cc1ccc(O)cc1)NC(=O)[C@H](CC(=O)O)NC(=O)[C@H](CO)NC(=O)[C@@H](NC(=O)[C@H](Cc1ccccc1)NC(=O)[C@@H](NC(=O)CNC(=O)[C@H](CCC(=O)O)NC(=O)C(C)(C)NC(=O)[C@@H](N)Cc1ccc(O)cc1)[C@@H](C)O)[C@@H](C)O)[C@@H](C)CC)[C@@H](C)CC)C(C)C)C(=O)N[C@@H](C)C(=O)NCC(=O)NCC(=O)N1CCC[C@H]1C(=O)N[C@@H](CO)C(=O)N[C@@H](CCCCNC(=O)COCCOCCNC(=O)COCCOCCNC(=O)CC[C@H](NC(=O)CCCCCCCCCCCCCCCCC(=O)O)C(=O)O)C(=O)N[C@H]1CSSC[C@@H](C(=O)N[C@@H](C)C(=O)N[C@H](C(=O)N[C@@H](CCC(N)=O)C(=O)N[C@@H](CCCNC(=N)N)C(=O)N[C@@H](CC(C)C)C(=O)N[C@@H](C)C(=O)N[C@@H](CCC(=O)O)C(=O)N[C@@H](Cc2ccccc2)C(=O)N[C@@H](CC(C)C)C(=O)N[C@@H](CCCNC(=N)N)C(=O)N[C@@H](Cc2c[nH]cn2)C(=O)N[C@@H](CO)C(=O)N[C@@H](CO)C(=O)N[C@@H](CC(N)=O)C(=O)N[C@@H](CC(N)=O)C(=O)N[C@@H](Cc2ccccc2)C(=O)NCC(=O)N2CCC[C@H]2C(=O)N[C@H](C(=O)N[C@@H](CC(C)C)C(=O)N2CCC[C@H]2C(=O)N2CCC[C@H]2C(=O)N[C@H](C(=O)N[C@@H](CC(N)=O)C(=O)N[C@H](C(=O)NCC(=O)N[C@@H](CO)C(=O)N[C@@H](Cc2c[nH]cn2)C(=O)N[C@H](C(=O)N2CCC[C@H]2C(N)=O)[C@@H](C)O)C(C)C)[C@@H](C)O)[C@@H](C)CC)[C@@H](C)O)NC(=O)[C@H]([C@@H](C)O)NC(=O)[C@H](C)NC(=O)[C@H]([C@@H](C)O)NC(=O)[C@H](CC(N)=O)NC1=O [SEQ ID NO. 55, Y-Aib-E-G-T-F-T-S-D-Y-S-I-Aib-LDKIAQQAFVQWLIAGGPSK*-CNTATCATQRLAEFLRHSSNNFGPILPPTNVGSHTP-NH2-acetate salt (wherein K* = Lys(AEEAc-AEEAc-γ-Glu-17-carboxyheptadecanoyl))]	44.2 nM	0.019 nM	0.324 nM	46.1 nM
Y[Aib]EGTFTSDYSI[Aib]LDKIAQQAFVQWLIAGGPSASHLSTAVLGK([AEEA-AEEA-γGlu-C18 diacid])LS[Aib]ELHKLEDYPRTDVGAESP-NH2 [SEQ ID NO. 57, Y-Aib-E-G-T-F-T-S-D-Y-S-I-Aib-LDKIAQQAFVQWLIAGGPSASHLSTAVLGK*-L-S-Aib-E-L-H-K-L-E-D-Y-P-R-T-D-V-G-A-E-S-P-NH2-acetate salt (wherein K* = Lys(AEEAc-AEEAc-γ-Glu-17-carboxyheptadecanoyl))]	0.044 nM	0.047 nM	0.724 nM	0.152 nM
Y[Aib]EGTFTSDYSI[Aib]LDKIAQQAFVQWLIAGGPSSGAPPPSCNTATCVLGRLSQELHRLQTYPRTNTGK([AEEA-AEEA-γGlu-C18 diacid])NTY-NH2 (disulfide 40-45 (inferred)) [SEQ ID NO. 45, Y-Aib-E-G-T-F-T-S-D-Y-S-I-Aib-LDKIAQQAFVQWLIAGGPSSGAPPPSCNTATCVLGRLSQELHRLQTYPRTNTGK*-N-T-Y-NH2-acetate salt (wherein K* is Lys(AEEAc-AEEAc-γ-Glu-17-carboxyheptadecanoyl))]	0.106 nM	0.041 nM	0.416 nM	0.333 nM
Y[Aib]EGTFTSDYSI[Aib]LDKIAQQAFVQWLIAGGPSSGAPPPSKCNTATCVLGRLSQELHRLQTYPRTNTK([AEEA-AEEA-γGlu-C18 diacid])SNTY-NH2 (disulfide 41-46 (inferred)) [SEQ ID NO. 52, Y-Aib-E-G-T-F-T-S-D-Y-S-I-Aib-LDKIAQQAFVQWLIAGGPSSGAPPPSKCNTATCVLGRLSQELHRLQTYPRTNTK*-S-N-T-Y-NH2-acetate salt (wherein K* is Lys(AEEAc-AEEAc-γ-Glu-17-carboxyheptadecanoyl))]	0.694 nM	0.147 nM	0.59 nM	1.24 nM
B1	0.388 nM	0.011 nM	0.854 nM	0.218 nM
